Species: Rattus norvegicus
Test: Open TG-GATES - Regimen: Daily Repeat
Type: toxicity, organism-based, Sprague-Dawley
Set-up: regimen Daily Repeat, gender Male, age 6 weeks
Conditions: in vivo, po, route gavage; for APTT / Bas / Eos / Fbg / Hb / Ht / Lym / MCH / MCHC / MCV / Mono / Neu / PT / Plat / RBC / Ret / WBC: tissue Blood; for KIDNEY_L / KIDNEY_R / KIDNEY_TOTAL: tissue Kidney; for LIVER: tissue Liver; for ALP / ALT / BUN / CRE / Ca / DBIL / GLC / K / LDH / Na / PL / RALB / TBIL / TC / TG / TP / gamma-GTP / AST: tissue Plasma
[1] = 60 mg/kg, 72 h, dose level Middle, time 3 day
[2] = 60 mg/kg, […], dose level Middle, time 7 day
[3] = 60 mg/kg, […], dose level Middle, time 14 day
[4] = 60 mg/kg, […], dose level Middle, time 28 day
[5] = 200 mg/kg, 72 h, dose level High, time 3 day
[6] = 200 mg/kg, […], dose level High, time 7 day
[7] = 200 mg/kg, […], dose level High, time 14 day
[8] = 200 mg/kg, […], dose level High, time 28 day

CCCCc1oc2ccccc2c1C(=O)c1cc(I)c(OCCN(CC)CC)c(I)c1 [AMIODARONE]
TERMINAL_BW [1]: 226.1 g
APTT [1]: 18.2 s
Bas [1]: 0%
Eos [1]: 1.2%
Fbg [1]: 225.8 mg/dL
Hb [1]: 13.5 g/dL
Ht [1]: 39.6%
Lym [1]: 79.2%
MCH [1]: 21.1 pg
MCHC [1]: 34.1%
MCV [1]: 62.1 fL
Mono [1]: 2.6%
Neu [1]: 15.8%
PT [1]: 12.8 s
Plat [1]: 127.1 x10_4/uL
RBC [1]: 637.8 x10_4/ul
Ret [1]: 5.5%
WBC [1]: 99.3 x10_2/uL
KIDNEY_L [1]: 1 g
KIDNEY_R [1]: 1 g
KIDNEY_TOTAL [1]: 2.1 g
LIVER [1]: 11 g
ALP [1]: 1120.2 IU/L
ALT [1]: 37.8 IU/L
BUN [1]: 16 mg/dL
CRE [1]: 0.3 mg/dL
Ca [1]: 10.7 mg/dL
DBIL [1]: 0.096 mg/dL
GLC [1]: 196.6 mg/dL
K [1]: 3.8 meq/L
LDH [1]: 194.6 IU/L
Na [1]: 140.8 meq/L
PL [1]: 147 mg/dL
RALB [1]: 3.4 g/dL
TBIL [1]: 0.1 mg/dL
TC [1]: 73.8 mg/dL
TG [1]: 101.8 mg/dL
TP [1]: 5.5 g/dL
gamma-GTP [1]: 1 IU/L
TERMINAL_BW [2]: 259.8 g
TERMINAL_BW [3]: 302.6 g
TERMINAL_BW [4]: 385.9 g
APTT [2]: 17.9 s
Bas [2]: 0%
Eos [2]: 1%
Fbg [2]: 216.8 mg/dL
Hb [2]: 13 g/dL
Lym [2]: 76.2%
MCH [2]: 20.9 pg
MCHC [2]: 34.1%
Mono [2]: 3.2%
Neu [2]: 18.6%
PT [2]: 12.3 s
Plat [2]: 132.6 x10_4/uL
RBC [2]: 622.6 x10_4/ul
Ret [2]: 5.4%
WBC [2]: 103.2 x10_2/uL
APTT [3]: 20.8 s
Bas [3]: 0%
Eos [3]: 0.4%
Fbg [3]: 214.4 mg/dL
Hb [3]: 14.4 g/dL
Ht [3]: 41.1%
Lym [3]: 79%
MCH [3]: 20.9 pg
MCHC [3]: 35%
MCV [3]: 59.7 fL
Mono [3]: 2.2%
Neu [3]: 17.4%
Plat [3]: 115.4 x10_4/uL
RBC [3]: 688.2 x10_4/ul
Ret [3]: 4.3%
WBC [3]: 115.1 x10_2/uL
APTT [4]: 20.6 s
Bas [4]: 0%
Eos [4]: 1%
Fbg [4]: 218.6 mg/dL
Ht [4]: 42.1%
Lym [4]: 78.2%
MCH [4]: 19.7 pg
MCHC [4]: 35%
MCV [4]: 56.3 fL
Mono [4]: 2.6%
Neu [4]: 17%
Plat [4]: 111.2 x10_4/uL
RBC [4]: 748.8 x10_4/ul
Ret [4]: 2.8%
WBC [4]: 115.2 x10_2/uL
KIDNEY_L [2]: 1.2 g
KIDNEY_R [2]: 1.1 g
KIDNEY_TOTAL [2]: 2.3 g
KIDNEY_L [3]: 1.2 g
KIDNEY_R [3]: 1.2 g
KIDNEY_TOTAL [3]: 2.3 g
KIDNEY_L [4]: 1.3 g
KIDNEY_R [4]: 1.3 g
KIDNEY_TOTAL [4]: 2.7 g
LIVER [3]: 13.8 g
LIVER [4]: 16.9 g
ALP [2]: 981 IU/L
ALT [2]: 34.8 IU/L
AST [2]: 60 IU/L
BUN [2]: 17.4 mg/dL
CRE [2]: 0.3 mg/dL
Ca [2]: 10.5 mg/dL
DBIL [2]: 0.1 mg/dL
GLC [2]: 208 mg/dL
K [2]: 4 meq/L
LDH [2]: 174.8 IU/L
Na [2]: 140.2 meq/L
PL [2]: 166.8 mg/dL
RALB [2]: 3.3 g/dL
TBIL [2]: 0.2 mg/dL
TC [2]: 90.8 mg/dL
TG [2]: 98.6 mg/dL
TP [2]: 5.5 g/dL
gamma-GTP [2]: 0.8 IU/L
ALP [3]: 996.2 IU/L
ALT [3]: 41.4 IU/L
AST [3]: 64.6 IU/L
BUN [3]: 16.6 mg/dL
CRE [3]: 0.4 mg/dL
Ca [3]: 10.6 mg/dL
DBIL [3]: 0.086 mg/dL
GLC [3]: 224.6 mg/dL
K [3]: 3.5 meq/L
LDH [3]: 174.6 IU/L
Na [3]: 140.4 meq/L
PL [3]: 171.6 mg/dL
RALB [3]: 3.4 g/dL
TBIL [3]: 0.1 mg/dL
TC [3]: 90.4 mg/dL
TG [3]: 102 mg/dL
TP [3]: 5.9 g/dL
gamma-GTP [3]: 1.8 IU/L
ALP [4]: 803.2 IU/L
ALT [4]: 34.4 IU/L
AST [4]: 56.4 IU/L
BUN [4]: 18 mg/dL
CRE [4]: 0.5 mg/dL
Ca [4]: 10.4 mg/dL
DBIL [4]: 0.098 mg/dL
GLC [4]: 192.6 mg/dL
K [4]: 3.7 meq/L
LDH [4]: 152.6 IU/L
Na [4]: 141 meq/L
PL [4]: 167.2 mg/dL
RALB [4]: 3.3 g/dL
TBIL [4]: 0.2 mg/dL
TC [4]: 86.6 mg/dL
TG [4]: 120 mg/dL
TP [4]: 6 g/dL
gamma-GTP [4]: 1.6 IU/L
TERMINAL_BW [5]: 204.2 g
APTT [5]: 27.3 s
Bas [5]: 0%
Eos [5]: 1.2%
Fbg [5]: 214.6 mg/dL
Hb [5]: 14.1 g/dL
Ht [5]: 40.9%
Lym [5]: 84.6%
MCH [5]: 20.9 pg
MCHC [5]: 34.4%
MCV [5]: 60.8 fL
Mono [5]: 3.2%
Neu [5]: 9.2%
PT [5]: 15.9 s
Plat [5]: 122.1 x10_4/uL
RBC [5]: 672.8 x10_4/ul
Ret [5]: 3.5%
WBC [5]: 70.5 x10_2/uL
KIDNEY_L [5]: 0.9 g
KIDNEY_R [5]: 0.9 g
KIDNEY_TOTAL [5]: 1.8 g
LIVER [5]: 9 g
ALP [5]: 1623.2 IU/L
BUN [5]: 14.2 mg/dL
CRE [5]: 0.3 mg/dL
Ca [5]: 10 mg/dL
DBIL [5]: 0.062 mg/dL
GLC [5]: 193.2 mg/dL
K [5]: 3.6 meq/L
LDH [5]: 222.2 IU/L
Na [5]: 140.2 meq/L
PL [5]: 181.6 mg/dL
RALB [5]: 3.4 g/dL
TBIL [5]: 0.1 mg/dL
TC [5]: 135 mg/dL
TG [5]: 33.2 mg/dL
TP [5]: 5.7 g/dL
gamma-GTP [5]: 0.8 IU/L
TERMINAL_BW [6]: 210.1 g
TERMINAL_BW [7]: 194.8 g
TERMINAL_BW [8]: 228 g
APTT [6]: 33.7 s
Bas [6]: 0%
Eos [6]: 0.8%
Fbg [6]: 202.2 mg/dL
Hb [6]: 14.6 g/dL
Ht [6]: 41.9%
Lym [6]: 82.8%
MCH [6]: 21.2 pg
MCHC [6]: 34.9%
MCV [6]: 60.7 fL
Mono [6]: 2.6%
Neu [6]: 13.2%
PT [6]: 17.5 s
Plat [6]: 127 x10_4/uL
RBC [6]: 690.2 x10_4/ul
Ret [6]: 1.4%
WBC [6]: 119 x10_2/uL
APTT [7]: 26.9 s
Bas [7]: 0%
Eos [7]: 0.8%
Fbg [7]: 180.2 mg/dL
Hb [7]: 16 g/dL
Ht [7]: 44.7%
Lym [7]: 68%
MCH [7]: 20 pg
MCHC [7]: 35.9%
MCV [7]: 55.6 fL
Mono [7]: 1.6%
Neu [7]: 29.6%
PT [7]: 15 s
Plat [7]: 109.5 x10_4/uL
RBC [7]: 803.6 x10_4/ul
Ret [7]: 0.8%
WBC [7]: 77.9 x10_2/uL
APTT [8]: 27.4 s
Bas [8]: 0%
Eos [8]: 0.8%
Fbg [8]: 215.8 mg/dL
Hb [8]: 15.6 g/dL
Ht [8]: 42.8%
Lym [8]: 64%
MCH [8]: 19 pg
MCHC [8]: 36.4%
MCV [8]: 52.2 fL
Mono [8]: 2%
Neu [8]: 32%
PT [8]: 17 s
Plat [8]: 159.1 x10_4/uL
RBC [8]: 819 x10_4/ul
Ret [8]: 2.1%
WBC [8]: 96 x10_2/uL
KIDNEY_L [6]: 0.9 g
KIDNEY_R [6]: 0.9 g
KIDNEY_TOTAL [6]: 1.9 g
KIDNEY_L [7]: 0.9 g
KIDNEY_R [7]: 0.9 g
KIDNEY_TOTAL [7]: 1.7 g
KIDNEY_L [8]: 0.9 g
KIDNEY_R [8]: 1 g
KIDNEY_TOTAL [8]: 1.9 g
LIVER [6]: 9.6 g
LIVER [7]: 9.1 g
ALP [6]: 1316.2 IU/L
ALT [6]: 31 IU/L
AST [6]: 56.4 IU/L
BUN [6]: 13.6 mg/dL
CRE [6]: 0.4 mg/dL
Ca [6]: 10 mg/dL
DBIL [6]: 0.068 mg/dL
GLC [6]: 184.4 mg/dL
K [6]: 4 meq/L
LDH [6]: 215.6 IU/L
Na [6]: 139.2 meq/L
PL [6]: 182.8 mg/dL
RALB [6]: 3.4 g/dL
TBIL [6]: 0.1 mg/dL
TC [6]: 144.8 mg/dL
TG [6]: 24.6 mg/dL
TP [6]: 5.8 g/dL
gamma-GTP [6]: 1.2 IU/L
ALP [7]: 1457.8 IU/L
ALT [7]: 44.8 IU/L
AST [7]: 59.8 IU/L
BUN [7]: 16.6 mg/dL
CRE [7]: 0.5 mg/dL
Ca [7]: 9.6 mg/dL
DBIL [7]: 0.064 mg/dL
GLC [7]: 200.8 mg/dL
K [7]: 3.6 meq/L
LDH [7]: 176.6 IU/L
Na [7]: 139.4 meq/L
PL [7]: 190.4 mg/dL
RALB [7]: 3.4 g/dL
TBIL [7]: 0.1 mg/dL
TC [7]: 163.4 mg/dL
TP [7]: 5.7 g/dL
gamma-GTP [7]: 1.6 IU/L
ALP [8]: 1315 IU/L
ALT [8]: 39.8 IU/L
AST [8]: 82 IU/L
BUN [8]: 15.5 mg/dL
CRE [8]: 0.5 mg/dL
Ca [8]: 9.4 mg/dL
DBIL [8]: 0.065 mg/dL
GLC [8]: 169 mg/dL
K [8]: 3.9 meq/L
LDH [8]: 184 IU/L
Na [8]: 139.8 meq/L
PL [8]: 177 mg/dL
RALB [8]: 3.3 g/dL
TBIL [8]: 0.1 mg/dL
TC [8]: 127.5 mg/dL
TG [8]: 26.5 mg/dL
TP [8]: 5.8 g/dL
gamma-GTP [8]: 1.2 IU/L
